Reference: patent publication US9527867B2, “Antibacterial biaromatic derivatives” (Actelion Pharmaceuticals Ltd., priority 2013, dated 2016)
≈ marks a conversion by molar mass, not a printed value.

How the values were obtained:
Assay in all cases: Bacterial growth minimal inhibitory concentration (broth microdilution, CLSI M7-A7)
Format in all cases: cell-based
[1] = test system: Acinetobacter baumannii T6474; settings: multiply-resistant strain (in particular quinolone-resistant); for MIC: Acinetobacter baumannii, T6474, cation-adjusted Mueller-Hinton Broth
Procedure: (§1) Minimal Inhibitory Concentrations (MICs; mg/L) were determined in cation-adjusted Mueller-Hinton Broth by a microdilution method following the description given in “Methods for Dilution Antimicrobial Susceptibility Tests for Bacteria that Grow Aerobically”, Approved standard, 7th ed., Clinical and Laboratory Standards Institute (CLSI) Document M7-A7, Wayne, Pa., USA (2006).
(§2) All Example compounds were tested against several Gram positive and Gram negative bacteria. […] Staphylococcus aureus A798, Enterococcus faecium A949 and Acinetobacter baumannii T6474 are multiply-resistant strains (in particular quinolone-resistant), while Moraxella catarrhalis A894 is a quinolone-sensitive strain and Staphylococcus aureus ATCC29213 is a methicillin-sensitive and quinolone-sensitive strain.

[2] = test system: Enterococcus faecium A949; settings: multiply-resistant strain (in particular quinolone-resistant); for MIC: Enterococcus faecium, A949, cation-adjusted Mueller-Hinton Broth, read-out: MIC for E. faecium A949
Procedure: as §1, §2

[3] = test system: Moraxella catarrhalis A894; settings: quinolone-sensitive strain; for MIC: Moraxella catarrhalis, A894, cation-adjusted Mueller-Hinton Broth
Procedure: as §1, §2

[4] = test system: Staphylococcus aureus A798; settings: multiply-resistant strain (in particular quinolone-resistant); for MIC: Staphylococcus aureus, A798, cation-adjusted Mueller-Hinton Broth, read-out: MIC for S. aureus A798
Procedure: as §1, §2

[5] = test system: Staphylococcus aureus ATCC29213; settings: methicillin-sensitive and quinolone-sensitive strain; for MIC: Staphylococcus aureus, ATCC29213, cation-adjusted Mueller-Hinton Broth, read-out: MIC for S. aureus ATCC29213
Procedure: as §1, §2

[6] = cation-adjusted Mueller-Hinton Broth

N#CCOc1cccc(-c2cccc(CNCC[C@H]3CN(c4ccc5c(n4)NC(=O)CO5)C(=O)O3)c2)c1 [Example 65, [3′-({2-[(S)-2-oxo-3-(3-oxo-3,4-dihydro-2H-pyrido[3,2-b][1,4]oxazin-6-yl)-oxazolidin-5-yl]-ethylamino}-methyl)-biphenyl-3-yloxy]-acetonitrile]
MIC [1]: 2 µg/mL (≈ 4 µM) | MIC [2]: 16 µg/mL (≈ 32 µM) | MIC [3]: ≤ 0.063 µg/mL | MIC [4]: 1 µg/mL (≈ 2 µM) | MIC [5]: 1 µg/mL (≈ 2 µM)

COc1ccc(OC)c(-c2cccc(CNCC[C@H]3CN(c4ccc5c(n4)NC(=O)CO5)C(=O)O3)c2)c1 [Example 64, 6-((S)-5-{2-[(2′,5′-dimethoxy-biphenyl-3-ylmethyl)-amino]-ethyl}-2-oxo-oxazolidin-3-yl)-4H-pyrido[3,2-b][1,4]oxazin-3-one]
MIC [1]: 16 µg/mL (≈ 31.7 µM) | MIC [2]: 16 µg/mL (≈ 31.7 µM) | MIC [3]: ≤ 0.063 µg/mL | MIC [4]: 2 µg/mL (≈ 3.96 µM) | MIC [5]: 1 µg/mL (≈ 1.98 µM)

O=C1COc2ccc(N3C[C@H](CCNCc4cccc(-c5cccc(OCC6CCC6)c5)c4)OC3=O)nc2N1 [Example 50, 6-((S)-5-{2-[(3′-cyclobutylmethoxy-biphenyl-3-ylmethyl)-amino]-ethyl}-2-oxo-oxazolidin-3-yl)-4H-pyrido[3,2-b][1,4]oxazin-3-one]
MIC [1]: > 8 µg/mL | MIC [2]: 8 µg/mL (≈ 15.1 µM) | MIC [3]: 0.5 µg/mL (≈ 0.946 µM) | MIC [4]: 2 µg/mL (≈ 3.78 µM) | MIC [5]: 4 µg/mL (≈ 7.57 µM)

6-((R)-5-{2-[3-(6-methoxy-pyridin-2-yl)-benzylamino]-ethyl}-2-oxo-oxazolidin-3-yl)-4H-pyrido[3,2-b][1,4]oxazin-3-one [Example 31]
MIC for A. baumannii T6474 [1, 6]: 0.5 µg/mL | MIC for E. faecium A949 [2, 6]: 2 µg/mL | MIC for M. catarrhalis A894 [3, 6]: ≦0.016 mg/L | MIC for S. aureus A798 [4, 6]: 0.25 µg/mL | MIC for S. aureus ATCC29213 [5, 6]: 0.25 µg/mL

COc1cnnc(-c2cccc(CNCCc3nn(-c4ccc5c(n4)NC(=O)CO5)c(=O)o3)c2)c1 [Example 108, 6-(5-{2-[3-(5-methoxy-pyridazin-3-yl)-benzylamino]-ethyl}-2-oxo-[1,3,4]oxadiazol-3-yl)-4H-pyrido[3,2-b][1,4]oxazin-3-one]
MIC [1]: 1 µg/mL (≈ 2.1 µM) | MIC [2]: > 8 µg/mL | MIC [3]: 0.125 µg/mL (≈ 0.263 µM) | MIC [4]: 4 µg/mL (≈ 8.41 µM) | MIC [5]: 2 µg/mL (≈ 4.21 µM)

COc1cccc(-c2cccc(CNCCc3cn(-c4ccc5c(n4)NC(=O)CO5)c(=O)o3)c2O)n1 [Example 85, 6-(5-{2-[2-hydroxy-3-(6-methoxy-pyridin-2-yl)-benzylamino]-ethyl}-2-oxo-oxazol-3-yl)-4H-pyrido[3,2-b][1,4]oxazin-3-one]
MIC [1]: 0.125 µg/mL (≈ 0.255 µM) | MIC [2]: 0.5 µg/mL (≈ 1.02 µM) | MIC [3]: ≤ 0.016 µg/mL | MIC [4]: ≤ 0.016 µg/mL | MIC [5]: ≤ 0.016 µg/mL

N#Cc1cccc(-c2cc(CNCC[C@H]3CN(c4ccc5c(n4)NC(=O)CO5)C(=O)O3)ccn2)c1 [Example 46, 3-[4-({2-[(S)-2-oxo-3-(3-oxo-3,4-dihydro-2H-pyrido[3,2-b][1,4]oxazin-6-yl)-oxazolidin-5-yl]-ethylamino}-methyl)-pyridin-2-yl]-benzonitrile]
MIC [1]: 0.25 µg/mL (≈ 0.531 µM) | MIC [2]: 2 µg/mL (≈ 4.25 µM) | MIC [3]: 0.031 µg/mL (≈ 0.0659 µM) | MIC [4]: 0.5 µg/mL (≈ 1.06 µM) | MIC [5]: 0.5 µg/mL (≈ 1.06 µM)

N#Cc1cccc(-c2cccc(CNCC[C@H]3CN(c4ccc5c(n4)NC(=O)CS5)C(=O)O3)c2)c1 [Example 100, 3′-({2-[(S)-2-oxo-3-(3-oxo-3,4-dihydro-2H-pyrido[3,2-b][1,4]thiazin-6-yl)-oxazolidin-5-yl]-ethylamino}-methyl)-biphenyl-3-carbonitrile]
MIC [1]: 0.125 µg/mL (≈ 0.257 µM) | MIC [2]: 0.5 µg/mL (≈ 1.03 µM) | MIC [3]: ≤ 0.016 µg/mL | MIC [4]: ≤ 0.016 µg/mL | MIC [5]: ≤ 0.016 µg/mL

COc1nc(OC)nc(-c2cccc(CNCC[C@@H]3CN(c4ccc5c(c4)NC(=O)CS5)C(=O)O3)c2)n1 [Example 28, 6-((R)-5-{2-[3-(4,6-dimethoxy-[1,3,5]triazin-2-yl)-benzylamino]-ethyl}-2-oxo-oxazolidin-3-yl)-4H-benzo[1,4]thiazin-3-one]
MIC [1]: 1 µg/mL (≈ 1.91 µM) | MIC [2]: 4 µg/mL (≈ 7.65 µM) | MIC [3]: 0.063 µg/mL (≈ 0.121 µM) | MIC [4]: 0.25 µg/mL (≈ 0.478 µM) | MIC [5]: 0.25 µg/mL (≈ 0.478 µM)

COc1ccc(C#N)c(-c2cccc(CNCCc3nn(-c4ccc5c(n4)NC(=O)CO5)c(=O)o3)c2)c1 [Example 52, 5-methoxy-3′-({2-[5-oxo-4-(3-oxo-3,4-dihydro-2H-pyrido[3,2-b][1,4]oxazin-6-yl)-4,5-dihydro-[1,3,4]oxadiazol-2-yl]-ethylamino}-methyl)-biphenyl-2-carbonitrile]
MIC [1]: 2 µg/mL (≈ 4.01 µM) | MIC [2]: 4 µg/mL (≈ 8.02 µM) | MIC [3]: 0.031 µg/mL (≈ 0.0622 µM) | MIC [4]: 1 µg/mL (≈ 2.01 µM) | MIC [5]: 0.5 µg/mL (≈ 1 µM)

COc1cnnc(-c2cccc(CNCCc3cn(-c4ccc5c(n4)NC(=O)CO5)c(=O)o3)c2)c1 [Example 83, 6-(5-{2-[3-(5-methoxy-pyridazin-3-yl)-benzylamino]-ethyl}-2-oxo-oxazol-3-yl)-4H-pyrido[3,2-b][1,4]oxazin-3-one]
MIC [1]: 0.063 µg/mL (≈ 0.133 µM) | MIC [2]: 2 µg/mL (≈ 4.22 µM) | MIC [3]: ≤ 0.016 µg/mL | MIC [4]: 0.063 µg/mL (≈ 0.133 µM) | MIC [5]: 0.063 µg/mL (≈ 0.133 µM)

COc1cccc(-c2cccc(CNCC[C@H]3CN(c4ccc5c(n4)NC(=O)CO5)C(=O)O3)c2)c1 [Example 4, 6-((S)-5-{2-[(3′-methoxy-biphenyl-3-ylmethyl)-amino]-ethyl}-2-oxo-oxazolidin-3-yl)-4H-pyrido[3,2-b][1,4]oxazin-3-one]
MIC [1]: 0.5 µg/mL (≈ 1.05 µM) | MIC [2]: 4 µg/mL (≈ 8.43 µM) | MIC [3]: 0.031 µg/mL (≈ 0.0653 µM) | MIC [4]: 0.25 µg/mL (≈ 0.527 µM) | MIC [5]: 0.25 µg/mL (≈ 0.527 µM)

O=C1COc2ccc(N3C[C@H](CCNCc4cccc(-c5cccc(N6CCC(O)C6)n5)c4)OC3=O)nc2N1 (mixture of isomers) [Example 57, 6-[(S)-5-(2-{3-[6-((RS)-3-hydroxy-pyrrolidin-1-yl)-pyridin-2-yl]-benzylamino}-ethyl)-2-oxo-oxazolidin-3-yl]-4H-pyrido[3,2-b][1,4]oxazin-3-one]
MIC [1]: 2 µg/mL | MIC [2]: 8 µg/mL | MIC [3]: 0.25 µg/mL | MIC [4]: 1 µg/mL | MIC [5]: 2 µg/mL

COc1ccc(C#N)c(-c2cccc(CNCC[C@@H]3CN(c4ccc5c(n4)NC(=O)CO5)C(=O)O3)c2)c1 [Example 32, 5-methoxy-3′-({2-[(R)-2-oxo-3-(3-oxo-3,4-dihydro-2H-pyrido[3,2-b][1,4]oxazin-6-yl)-oxazolidin-5-yl]-ethylamino}-methyl)-biphenyl-2-carbonitrile]
MIC [1]: 0.5 µg/mL (≈ 1 µM) | MIC [2]: 2 µg/mL (≈ 4 µM) | MIC [3]: ≤ 0.016 µg/mL | MIC [4]: 0.125 µg/mL (≈ 0.25 µM) | MIC [5]: 0.125 µg/mL (≈ 0.25 µM)

N#Cc1cccc(-c2cccc(CNCC[C@@H]3CN(c4ccc5c(c4)NC(=O)CS5)C(=O)O3)c2)c1 [Example 5, 3′-({2-[(R)-2-oxo-3-(3-oxo-3,4-dihydro-2H-benzo[1,4]thiazin-6-yl)-oxazolidin-5-yl]-ethylamino}-methyl)-biphenyl-3-carbonitrile]
MIC [1]: 0.125 µg/mL (≈ 0.258 µM) | MIC [2]: 1 µg/mL (≈ 2.06 µM) | MIC [3]: ≤ 0.016 µg/mL | MIC [4]: 0.063 µg/mL (≈ 0.13 µM) | MIC [5]: 0.063 µg/mL (≈ 0.13 µM)

CCOc1cncc(-c2cccc(CNCC[C@H]3CN(c4ccc5c(n4)NC(=O)CO5)C(=O)O3)c2)c1 [Example 84, 6-((S)-5-{2-[3-(5-ethoxy-pyridin-3-yl)-benzylamino]-ethyl}-2-oxo-oxazolidin-3-yl)-4H-pyrido[3,2-b][1,4]oxazin-3-one]
MIC [1]: 0.5 µg/mL (≈ 1.02 µM) | MIC [2]: 8 µg/mL (≈ 16.3 µM) | MIC [3]: ≤ 0.063 µg/mL | MIC [4]: 0.125 µg/mL (≈ 0.255 µM) | MIC [5]: 0.25 µg/mL (≈ 0.511 µM)

COc1cccc(-c2nccc(CNCC[C@H]3CN(c4ccc5c(n4)NC(=O)CO5)C(=O)O3)n2)c1 [Example 102, 6-[(S)-5-(2-{[2-(3-methoxy-phenyl)-pyrimidin-4-ylmethyl]-amino}-ethyl)-2-oxo-oxazolidin-3-yl]-4H-pyrido[3,2-b][1,4]oxazin-3-one]
MIC [1]: 1 µg/mL (≈ 2.1 µM) | MIC [2]: 4 µg/mL (≈ 8.39 µM) | MIC [3]: 0.063 µg/mL (≈ 0.132 µM) | MIC [4]: 1 µg/mL (≈ 2.1 µM) | MIC [5]: 0.25 µg/mL (≈ 0.525 µM)
